Assay results reported in BindingDB's records for doi:10.1016/j.bmcl.2016.12.057 (University of Auckland, 2017).

Test: Inhibition of recombinant perforin (unknown origin) assessed as decrease in lysis of 51Cr-labelled human Jurkat cells by measuring 51Cr release preincubated for 30 mins followed by cell line addition measured after 4 hrs in presence of 0.1% BSA by gamma counting method

IC50, > 20 µM:
CN1CCc2cc(-c3ccc(-c4cncc(NS(=O)(=O)c5ccc(F)cc5F)c4)s3)ccc2C1=O
CN1Cc2cc(-c3nc(-c4cncc(NS(=O)(=O)c5ccc(F)cc5F)c4)cs3)ccc2C1=O
O=C1NCCc2cc(-c3ccc(-c4cncc(NS(=O)(=O)c5ccc(F)cc5F)c4)s3)ccc21
CC1c2cc(-c3ccc(-c4cncc(NS(=O)(=O)c5ccc(F)cc5F)c4)s3)ccc2C(=O)N1C (stereo not given)
O=C1NCCc2ccc(-c3ccc(-c4cncc(NS(=O)(=O)c5ccc(F)cc5F)c4)s3)cc21
